Measurements reported in ChEMBL document CHEMBL1131290, “Studies of structure-activity relationship of nitroxide free radicals and their precursors as modifiers against oxidative damage” (1998).

Tests used:
[1] = Mean surviving fraction of V79 cells following a 1-h exposure to H2O2.; assay type: functional, Cricetulus griseus
[2] = Mean surviving fraction of V79 cells following a 12-Gy dose of radiation.; assay type: functional, Cricetulus griseus
V79 [3] = conditions: Cricetulus griseus
V79 [4] = conditions: Cricetulus griseus; remark: listed apart in the source

CC1(C)CC(CN)C(C)(C)N1[O] (stereo not drawn)
H2O2 prot [1]: 0.7
Radiation prot [2]: 13.7

CC1(C)C=C(CNC23CC4CC(CC(C4)C2)C3)C(C)(C)N1
H2O2 prot [1]: 1.9
Radiation prot [2]: 1.4

CC1(C)C=C(C=O)C(C)(C)N1
H2O2 prot [1]: 0.9
Radiation prot [2]: 0.07

CC1(C)C=C(CN2CCCCC2)C(C)(C)N1
Radiation prot [2]: 0.95

CC1(C)CC(=O)CC(C)(C)N1O
Radiation prot [2]: 0.68

CC1(C)CC(=O)C(C)(C)N1O
H2O2 prot [1]: 1.1
Radiation prot [2]: 1

CC1(C)CCCC(C)(C)N1[O]
H2O2 prot [1]: 3.5
Radiation prot [2]: 4.2

CN(C)CC1=CC(C)(C)N(O)C1(C)C
Radiation prot [2]: 16

CC1(C)C=C(CN2CCCC2)C(C)(C)N1[O]
Radiation prot (V79 [3]): 21.4

CCCCNCC1=CC(C)(C)N([O])C1(C)C
Radiation prot (V79 [3]): 3.96
H2O2 prot (V79 [4]): 2.5

CC1(C)C=C(C[P+](c2ccccc2)(c2ccccc2)c2ccccc2)C(C)(C)N1[O]
Radiation prot (V79 [3]): 0.72

CC1(C)CCC=[N+]1[O-]
H2O2 prot [1]: 0.9
Radiation prot [2]: 0.93

CC1(C)C=C(CNC23CC4CC(CC(C4)C2)C3)C(C)(C)N1[O]
H2O2 prot (V79 [4]): 3.3

CC1(C)C=C(C(=O)NCCCN)C(C)(C)N1O
H2O2 prot [1]: 1

CC1(C)C=C(C(=O)NCCCN2C(=O)c3ccccc3C2=O)C(C)(C)N1
H2O2 prot [1]: 1.1
Radiation prot [2]: 1.9

CC(C)(C)NCC1=CC(C)(C)N(O)C1(C)C
H2O2 prot [1]: 2.1
Radiation prot [2]: 1.2

CC1(C)C=C(CCSC(=N)N)C(C)(C)N1[O]
Radiation prot (V79 [3]): 7.5
H2O2 prot (V79 [4]): 2.2

CC(C)(C)NCC1=CC(C)(C)N([O])C1(C)C
Radiation prot (V79 [3]): 19.3
H2O2 prot (V79 [4]): 2

CC1(C)C=C(C(=O)NCC(=O)O)C(C)(C)N1[O]
Radiation prot (V79 [3]): 0.98
H2O2 prot (V79 [4]): 0.9

CC1(C)C=C(C=O)C(C)(C)N1[O]
Radiation prot (V79 [3]): 2.7
H2O2 prot (V79 [4]): 1.3

CC1=[N+]([O-])C(C)(C)CC1
H2O2 prot [1]: 0.8
Radiation prot [2]: 1.1

CC1(C)C=C(CNC2CCCCC2)C(C)(C)N1[O]
Radiation prot (V79 [3]): 4.4

CC1(C)CC(O)C(C)(C)N1[O] (stereo not drawn)
Radiation prot (V79 [3]): 2.9
H2O2 prot (V79 [4]): 1.4

CC1(C)C=C(C(=O)O)C(C)(C)N1[O]
H2O2 prot [1]: 1

CC1(C)C=C(CO)C(C)(C)N1O
H2O2 prot [1]: 3.1
Radiation prot [2]: 0.92

CC1(C)C=C(CN2CCCC2)C(C)(C)N1O
Radiation prot [2]: 28.3

CN(CC1=CC(C)(C)N(O)C1(C)C)C12CC3CC(CC(C3)C1)C2
H2O2 prot [1]: 2.6

CC1(C)C=C(C(=O)NCCCN)C(C)(C)N1
Radiation prot [2]: 0.52

CC1(C)C=C(C(=O)NCCO)C(C)(C)N1[O]
H2O2 prot (V79 [4]): 1.2

CC[N+](CC)(CC)CC1=CC(C)(C)N([O])C1(C)C
Radiation prot (V79 [3]): 1.2

CC(=O)C1=CC(C)(C)N(O)C1(C)C
H2O2 prot [1]: 2.7
Radiation prot [2]: 0.15

CC1(C)C=C(CO)C(C)(C)N1
H2O2 prot [1]: 0.9
Radiation prot [2]: 1.5

COC(=O)C1=CC(C)(C)N([O])C1(C)C
Radiation prot (V79 [3]): 0.94
H2O2 prot (V79 [4]): 1.5

CC1(C)C=C(CN2C(=O)c3ccccc3C2=O)C(C)(C)N1O
H2O2 prot [1]: 3.3
Radiation prot [2]: 0.49

CCCC[N+](CCCC)(CCCC)CC1=CC(C)(C)N([O])C1(C)C
Radiation prot (V79 [3]): 0.69
H2O2 prot (V79 [4]): 1.1

CN1C(C)(C)C=C(C=O)C1(C)C
Radiation prot [2]: 0.6

CC1(C)C=C(CNCc2ccccc2)C(C)(C)N1[O]
Radiation prot (V79 [3]): 5.2
H2O2 prot (V79 [4]): 2

CC1(C)CC(O)CC(C)(C)N1O [TEMPOL HYDROXYLAMINE]
Radiation prot [2]: 1.05

CC1(C)CC(N)CC(C)(C)N1O
H2O2 prot [1]: 1
Radiation prot [2]: 1.1

CC1(C)C=C(CN2Cc3ccccc3C2)C(C)(C)N1[O]
Radiation prot (V79 [3]): 3.9

CC1(C)CC(O)CC(C)(C)N1
H2O2 prot [1]: 0.4
Radiation prot [2]: 0.9

CCOC1CC(C)(C)N(O)C(C)(C)C1
H2O2 prot [1]: 1.6

CC1(C)C=C(C(N)=O)C(C)(C)N1[O]
Radiation prot (V79 [3]): 10.7
H2O2 prot (V79 [4]): 1

CC1(C)C=C(CC[Se]C(=N)N)C(C)(C)[NH+]1[O-] (stereo not drawn)
H2O2 prot [1]: 1.3

CN(CC1=CC(C)(C)N([O])C1(C)C)Cc1ccccc1
H2O2 prot (V79 [4]): 2

CC1(C)CC(=O)C(C)(C)N1[O]
Radiation prot (V79 [3]): 10.2
H2O2 prot (V79 [4]): 0.9

CC1(C)C=C(CN2CCCCC2)C(C)(C)N1[O]
Radiation prot (V79 [3]): 19.1

CC1(C)C=C(CNC23CC4CC(CC(C4)C2)C3)C(C)(C)N1O
H2O2 prot [1]: 2.5
Radiation prot [2]: 1.8

CC(=O)NC1CC(C)(C)N(O)C(C)(C)C1
H2O2 prot [1]: 1.8
Radiation prot [2]: 0.85

CC(=O)C1=CC(C)(C)NC1(C)C
H2O2 prot [1]: 1.3
Radiation prot [2]: 0.63

CCOC1CC(C)(C)N([O])C(C)(C)C1
H2O2 prot (V79 [4]): 1.9

CC1(C)C=C(C(=O)NCCCN)C(C)(C)N1[O]
H2O2 prot (V79 [4]): 1.1

CC1(C)CCC(C)(C)N1[O]
H2O2 prot [1]: 0.9
Radiation prot [2]: 4.6

CCOCC1=CC(C)(C)N([O])C1(C)C
H2O2 prot (V79 [4]): 1.3

CCN(CC)CC1=CC(C)(C)N(O)C1(C)C
Radiation prot [2]: 0.96

CC1(C)C=C(NC(N)=O)C(C)(C)N1[O]
H2O2 prot (V79 [4]): 1.2

CC1(C)C=C(C(=O)NCCCN2C(=O)c3ccccc3C2=O)C(C)(C)N1O
H2O2 prot [1]: 2.2
Radiation prot [2]: 1.3

CC1(C)CC(O)CC(C)(C)N1[O] [TEMPOL]
H2O2 prot [1]: 2.5
Radiation prot [2]: 5.1

CC1(C)CC(CO)C(C)(C)N1[O] (stereo not drawn)
Radiation prot (V79 [3]): 4.7
H2O2 prot (V79 [4]): 1.1

CC1(C)C=C(CN2CCCCC2)C(C)(C)N1O
Radiation prot [2]: 30

CN(C)CC1=CC(C)(C)NC1(C)C
Radiation prot [2]: 0.95

CC1(C)CC(C(=O)NCCCN2C(=O)c3ccccc3C2=O)C(C)(C)N1O (stereo not drawn)
Radiation prot [2]: 1.26

CC1(C)C=C(C=O)CC(C)(C)N1
Radiation prot [2]: 0.4

CC1(C)C=C(C=O)C(C)(C)N1O
H2O2 prot [1]: 2.7
Radiation prot [2]: 0.13

CN(CC1=CC(C)(C)N([O])C1(C)C)C12CC3CC(CC(C3)C1)C2
H2O2 prot (V79 [4]): 3.3

CC1(C)C=C(CO)C(C)(C)N1[O]
Radiation prot (V79 [3]): 2.6
H2O2 prot (V79 [4]): 1.8

CC1(C)CC(NS(C)(=O)=O)CC(C)(C)N1O
Radiation prot [2]: 0.77

CC1(C)CC(N2C(=O)c3ccccc3C2=O)CC(C)(C)N1O
H2O2 prot [1]: 1.5

CC1(C)CC(N)C(C)(C)N1[O] (stereo not drawn)
H2O2 prot [1]: 1.1
Radiation prot [2]: 12.9

CC1(C)C=C(CNC23CC4CC(CC(C4)C2)C3)CC(C)(C)N1O
H2O2 prot [1]: 2.1

CC1(C)C=C(C=O)CC(C)(C)N1[O]
Radiation prot (V79 [3]): 6.1
H2O2 prot (V79 [4]): 0.8

CC1(C)CC(N)CC(C)(C)N1[O] [TEMPAMINE]
H2O2 prot [1]: 2.8
Radiation prot [2]: 18.5

CC1(C)CC(NC2CC(C)(C)N(O)C(C)(C)C2)CC(C)(C)N1O.Cl
H2O2 prot [1]: 1.9
Radiation prot [2]: 1.4

CC1(C)CC(=O)CC(C)(C)N1[O]
H2O2 prot [1]: 1.1
Radiation prot [2]: 7.1

CC1(C)CC(C(=O)O)C(C)(C)N1[O] (stereo not drawn)
H2O2 prot [1]: 1

CCCCN(CCCC)C1CC(C)(C)N([O])C(C)(C)C1
H2O2 prot (V79 [4]): 2.9

CC1(C)CCCC(C)(C)N1O
H2O2 prot [1]: 1.5
Radiation prot [2]: 0.68

CC1(C)C=C(CN2CCCC2)C(C)(C)N1
H2O2 prot [1]: 1
Radiation prot [2]: 0.34

CCN(CC)CC1=CC(C)(C)N([O])C1(C)C
Radiation prot (V79 [3]): 17.2

CN(C)CCCNC(=O)C1=CC(C)(C)N([O])C1(C)C
Radiation prot (V79 [3]): 15

CC1(C)C=C(C=O)CC(C)(C)N1O
Radiation prot [2]: 1.5

CC1(C)CC(=O)CC(C)(C)N1
H2O2 prot [1]: 0.5
Radiation prot [2]: 1.1

CCOCC1=CC(C)(C)N(O)C1(C)C
H2O2 prot [1]: 3.2

CCCCN(CCCC)CC1=CC(C)(C)N([O])C1(C)C
H2O2 prot (V79 [4]): 3.2

CC1(C)C=C(C(=O)NCCCO)C(C)(C)N1[O]
H2O2 prot (V79 [4]): 1.1

CC1(C)CC(N2C(=O)c3ccccc3C2=O)CC(C)(C)N1
H2O2 prot [1]: 0.8
Radiation prot [2]: 1.7

CC(=O)C1=CC(C)(C)N([O])C1(C)C
Radiation prot [2]: 4.8

CC1=[N+]([O-])C(C)CC1 (stereo not drawn)
H2O2 prot [1]: 1.1
Radiation prot [2]: 0.91

CC1(C)CC(C(N)=O)C(C)(C)N1[O] (stereo not drawn)
H2O2 prot [1]: 1.7
Radiation prot [2]: 11.2

CN(C)CC1=CC(C)(C)N([O])C1(C)C
Radiation prot (V79 [3]): 13.9
H2O2 prot (V79 [4]): 2.1

CC1(C)C=C(CCNC(=N)N)C(C)(C)N1[O]
Radiation prot (V79 [3]): 1
